Experimental findings from patent US20230129364A1, “PYRROLIDINE DERIVATIVE, AND PHARMACEUTICAL COMPOSITION FOR PREVENTING OR TREATING BETA-AMYLOID OR TAU PROTEIN-ASSOCIATED DISEASES CONTAINING SAME” (YONSEI UNIVERSITY, UNIVERSITY - INDUSTRY FOUNDATION (UIF), priority 2019, published 2023) are described below.

This assay deals with T1, Tau protein (wild-type K18) (Homo sapiens, UniProt P10636).
T1 construct: Tau protein (wild-type K18)
As to the kind of experiment: Tau protein aggregation inhibition test (thioflavin T assay). Particulars: heparin/DTT-induced aggregation, 37° C. 5 days, ThT fluorescence vs tau-only control = 100%. The class given is biochemical. Here is the method:
Tau protein (wild-type K18) was dissolved in phosphate-buffered saline (PBS, pH 7.4) at a concentration of 1 mg/mL to prepare a tau protein solution. In order to induce aggregation of tau proteins, 0.1 mg/mL of heparin and 100 μM dithiothreitol (DTT) were added to 1 mg/mL of the tau protein solution, followed by incubation at 37° C. for 5 days. At this time, the result was mixed with each test compound (50, 500 μM) such that the final concentration reached 0.5 mg/mL, followed by further incubation.
The inhibitory effect of each compound against tau aggregation was measured based on the intensity of fluorescence by thioflavin T (ThT) assay (see Example 2). More specifically, 25 μL of the reaction solution was charged in each well of a 96-well plate for fluorescence analysis, and 75 μL of the prepared thioflavin-T solution was then charged in each well. The reaction was allowed to proceed at room temperature in a dark laboratory for 5 minutes, and then fluorescence values were measured at an excitation wavelength of 450 nm and an emission wavelength of 485 nm using a multi-mode microplate reader.
The ratio of the fluorescence value measured in the group obtained by treating with each test compound to 100% of the fluorescence value of the group (control group) obtained by treating only with tau proteins and inducing aggregation for 5 days is set forth in Table 5 below: […]

Structures are written as SMILES.

T1 sequence (P10636 561-685 limits assumed): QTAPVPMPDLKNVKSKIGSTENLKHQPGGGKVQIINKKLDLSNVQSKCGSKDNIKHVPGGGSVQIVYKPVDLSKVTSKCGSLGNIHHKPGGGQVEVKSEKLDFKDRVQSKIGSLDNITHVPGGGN

Turning to `CN1C(=O)N/C(=C\c2cccc3ccoc23)C1=O` [DN204670, (Z)-5-(benzofuran-7-ylmethylene)-3-methylimidazolidine-2,4-dione], the “Tau aggregation remaining (ThT fluorescence, % of tau-only control)” value (50 uM test compound) is recorded as 87.73 % of control. Same read-out and setting: to `O=C1NC(=O)C(Cc2csc3ccccc23)S1` (stereo not shown) [DN204291, 5-(benzo[b]thiophen-3-ylmethyl)thiazolidine-2,4-dione] belongs 65.99 % of control. Consider `CN1C(=O)N/C(=C\c2csc3ccccc23)C1=O` [DN204671, (Z)-5-(benzo[b]thiophen-3-ylmethylene)-3-methylimidazolidine-2,4-dione], for which the “Tau aggregation remaining (ThT fluorescence, % of tau-only control)” value by setting is: (50 uM test compound) 88.61 % of control; (500 uM test compound) 77.02 % of control. For `CCN1C(=O)/C(=C/c2cccc3ccccc23)SC1=S` [DN205783] the same measures were 81.81 % of control and 69.79 % of control. As to `O=C1NC(=O)C(Cc2cc[nH]c2)S1` (stereo not shown) [DN204307, 5-((1H-pyrrol-3-yl)methyl)thiazolidine-2,4-dione], the “Tau aggregation remaining (ThT fluorescence, % of tau-only control)” value (500 uM test compound) is reported as 57.26 % of control. On to `CCN1C(=O)N/C(=C\c2c[nH]c3ccncc23)C1=O` [DN205822, (Z)-5-((1H-pyrrolo[3,2-c]pyridin-3-yl)methylene)-3-ethylimidazolidine-2,4-dione], for which the “Tau aggregation remaining (ThT fluorescence, % of tau-only control)” value (50 uM test compound) is reported as 83.97 % of control.

Take `CCN1C(=O)/C(=C/c2csc3ccccc23)NC1=S` [DN204810, (Z)-5-(benzo[b]thiophen-3-ylmethylene)-3-ethyl-2-thioxoimidazolidin-4-one]: the “Tau aggregation remaining (ThT fluorescence, % of tau-only control)” value is listed as 87.61 % of control (50 uM test compound) and 65.66 % of control (500 uM test compound). For `CCN1C(=O)/C(=C/c2c[nH]c3cnccc23)SC1=S` [DN205779, (Z)-5-((1H-pyrrolo[2,3-c]pyridin-3-yl)methylene)-3-ethyl-2-thioxothiazolidin-4-one] the same measures were 83.56 % of control and 62.51 % of control. As to `O=C1NC(=S)SC1Cc1cnc2ccccc2c1` (stereo not shown) [DN204302, 5-(quinolin-3-ylmethyl)-2-thioxothiazolidin-4-one], the “Tau aggregation remaining (ThT fluorescence, % of tau-only control)” value runs as follows: (50 uM test compound) 67.16 % of control; (500 uM test compound) 47.38 % of control. On to `O=C1NC(=S)SC1Cc1csc2ccccc12` (stereo not shown) [DN204300, 5-(benzo[b]thiophen-3-ylmethyl)-2-thioxothiazolidin-4-one], for which the “Tau aggregation remaining (ThT fluorescence, % of tau-only control)” value (50 uM test compound) is 92.633 % of control. As to `O=C1NC(=O)/C(=C/c2ccsc2)S1` [DN204288, (Z)-5-(thiophen-3-ylmethylene) thiazolidine-2,4-dione], the “Tau aggregation remaining (ThT fluorescence, % of tau-only control)” value (50 uM test compound) was 74.09 % of control and the “Tau aggregation remaining (ThT fluorescence, % of tau-only control)” value (500 uM test compound) is reported as 80.79 % of control. With `CCN1C(=O)/C(=C/c2csc3ccccc23)SC1=S` [DN205782, (Z)-5-(benzo[b]thiophen-3-ylmethylene)-3-ethyl-2-thioxothiazolidin-4-one], the “Tau aggregation remaining (ThT fluorescence, % of tau-only control)” value (50 uM test compound) is on record as 97.55 % of control and the “Tau aggregation remaining (ThT fluorescence, % of tau-only control)” value (500 uM test compound) was 75.35 % of control.
